The conditions of data set [1]: female, 129/S, mouse, in vivo.
For data set [2] the following is noted: male, Sprague-Dawley, rat, in vivo.
The conditions of data set [3]: in vivo; cited from earlier work.
Data set [4] relates to SARS-CoV-2. To be noted: 35 compounds tested.

Like-named read-outs stand apart in the source and are kept apart here.

In general, Tmax refers to the time at which the peak concentration occurs. Take `Cc1c(-c2ccc(O)cc2)n(Cc2ccc(OCCN3CCCCC3)cc2)c2ccc(O)cc12` [Pipendoxifene, 2-(4-hydroxyphenyl)-3-methyl-1-[[4-(2-piperidin-1-ylethoxy)phenyl]methyl]indol-5-ol]: the C24h plasma concentration in data set [1] (125 mg/kg) turned out to be 290 ng/mL; in data set [1] (250 mg/kg), 194 ng/mL. Further, the Lung concentration in data set [1] (po, 250 mg/kg) came to 784 ng/mL. In addition, the Plasma concentration in data set [1] (po, 250 mg/kg) worked out at 194 ng/mL. For the same compound, the “increase of plasma AUClast” value in data set [2] is given as “about 2 fold”. The compound also yielded an AUClast in data set [2] (po, 250 mg/kg) of 3515 ng·h/mL. Moreover, the Tmax in data set [2] (po, 250 mg/kg) amounted to 5.33 h; in data set [2] (po, 500 mg/kg), 6.67 h; in data set [2] (po, 750 mg/kg), 6.67 h. For the same compound, the primary metabolite entry in data set [3] is given as “indole glucuronide”. For the same compound, the “activity in the HeLa-ACE2 cell-based SARS-CoV-2 assay” value in data set [4] is on record as “demonstrated activity”.
